Laboratory results from US9932303B2, “N-hydroxymethanesulfonamide nitroxyl donors” (Cardioxyl Pharmaceuticals, Inc., priority 2014, dated 2018).

Columns and labels:
[1] = Nitroxyl production via N2O headspace analysis (GC); settings: PBS, 37° C.
Source text: Nitrous oxide (N2O) is produced via the dimerization and dehydration of HNO, and is the most common marker for nitroxyl production (Fukuto et al., Chem. Res. Toxicol. 18:790-801 (2005)). […] Using either nitrous oxide gas or Angeli's salt (AS) as a standard, the relative amounts of N2O released from N-hydroxymethanesulfonamide nitroxyl donating compounds was examined via gas chromatography (GC) headspace analysis.
A procedure for determining the relative amounts of N2O released from N-hydroxymethanesulfonamide nitroxyl donating compounds is as follows. GC was performed on an Agilent gas chromatograph equipped with a split injector (10:1 splitting), microelectron capture detector, and a HP-MOLSIV 30 m×0.32 mm×25 μm molecular sieve capillary column. Helium was used as the carrier (4 mL/min) gas and nitrogen was used as the make-up (20 mL/min) gas. […]
All determinations used a batch of nominal 20 mL headspace vials with volumes pre-measured for sample uniformity (actual vial volume varied by ≤2.0% relative standard deviation (n=6)). The average vial volume for the batch was determined from six randomly-selected vials by calculating the weight difference between the capped and sealed empty (i.e., air-filled) vial and the capped and sealed deionized water-filled vial using the known density of deionized water, then averaging. […]

[2] = In vitro stability in dog plasma; type: in vitro ADME; settings: male, pH 7.4, 37° C., read-out: T1/2 (minutes) Dog
Method: (§1) Certain compounds from Table 1 were tested for their stability in plasma. The assay system comprised (i) PBS, or plasma from rat, dog or human (at least 3 donors, male, pooled) at pH 7.4, and (ii) for tests conducted in plasma, an anticoagulant (sodium heparin or sodium citrate). Each test compound (5 μM) was incubated in PBS or plasma at 37° C. on a THERMOMIXER® with shaking Three samples (n=3) were taken at each of seven sampling time points: 0, 10, 30, 60, 90, 180 and 360 minutes. The samples were immediately combined with 3 volumes (i.e., 3 times the volume of PBS or plasma) of acetonitrile containing 1% formic acid and an internal standard to terminate the reaction. AB SCIEX API 3000 LC-MS/MS analysis of the test compounds was performed without a standard curve. Half-lives (T1/2) of the test compounds were determined from graphs of the percent remaining values using the peak area response ratio.

[3] = In vitro stability in rat plasma; type: in vitro ADME; settings: male, pH 7.4, 37° C., read-out: T1/2 (minutes) Rat
Method: as §1

[4] = Solid-state stability (appearance, HPLC purity) on storage; type: physicochemical; settings: 40° C., 70% RH
Method: Solid, powdered samples of compound 2 (1-(4-chlorophenyl)-N-hydroxymethanesulfonamide) were sealed in double polyethylene bags and stored at 40° C., 70% relative humidity (RH) for up to 3 months. After 2 weeks, 1 month, 2 months, and 3 months of storage, the samples were analyzed for visual appearance and/or purity, as determined by high performance liquid chromatography (HPLC). The HPLC measurement conditions were as follows: • Column: PrimeSep AB, 150×4.6 mm, 5 μm • Injection Volume: 10 μL • Detection Wavelength: 220 nm • Mobile Phase A: 0.3% Trifluoroacetic acid (TFA) in deionized water (DI-H2O) • Mobile Phase B: 0.2% TFA in acetonitrile • Diluent: Acetonitrile • Gradient:
• Flow Rate: 1.0 mL/min • Column Temperature: 30° C.

[5] = In vitro stability in human plasma; type: in vitro ADME; settings: male, pH 7.4, 37° C., read-out: T1/2 (minutes) Human
Method: as §1

O=[N+]([O-])c1ccccc1CS(=O)(=O)NO [Compound 1, N-Hydroxy-1-(2-nitrophenyl)methanesulfonamide]
Relative N2O Yield (90 minute incubation) [1]: 37%
melting point: 163 °C
half-life at 5 μM [2]: 26 min

O=S(=O)(Cc1ccc(Cl)cc1)NO [Compound 2, 1-(4-Chlorophenyl)-N-hydroxymethanesulfonamide]
Relative N2O Yield (90 minute incubation) [1]: 24%
melting point: 144 °C
half-life at 5 μM [3]: 114 min
Appearance ([4]; 0 Weeks): White
HPLC Purity ([4]; 0 Weeks): 98.912%
HPLC peak at RRT 0.88 ([4]; 0 Weeks): 0.368%
HPLC peak at RRT 1.23 ([4]; 0 Weeks): 0.087%
HPLC peak at RRT 1.35 ([4]; 0 Weeks): 0.633%
Appearance ([4]; 1 Month): White
HPLC Purity ([4]; 1 Month): 95.579%
HPLC peak at RRT 0.88 ([4]; 1 Month): 0.966%
HPLC peak at RRT 1.54 ([4]; 1 Month): 1.959%
HPLC peak at RRT 1.76 ([4]; 1 Month): 0.502%
Appearance ([4]; 2 Months): Off white
HPLC Purity ([4]; 2 Months): 82.665%
HPLC peak at RRT 0.88 ([4]; 2 Months): 3.600%
HPLC peak at RRT 1.53 ([4]; 2 Months): 6.432%
HPLC peak at RRT 1.77 ([4]; 2 Months): 3.234%
Appearance ([4]; 2 Weeks): White
Appearance ([4]; 3 Months): Off white
HPLC Purity ([4]; 3 Months): 76.661%
HPLC peak at RRT 0.88 ([4]; 3 Months): 4.108%
HPLC peak at RRT 1.50 ([4]; 3 Months): 10.123%
HPLC peak at RRT 1.77 ([4]; 3 Months): 3.165%
half-life at 5 μM [2]: 62 min
half-life at 5 μM [5]: 102 min
